Laboratory results taken from patent US20040023924A1, “Use of xyloglucan polymers and oligomers, and derivative compounds, as phytosanitary products and biofertilizers” (priority 2000, published 2004).

Legend:
[1] = test system: β-D-xylosidase (EC 3.2.1.37); experiment: Induction of a β-D-xylosidase response in elicited cells; assay type: cell-based, Acer pseudoplatanus L.; conditions: 50 nM elicitor; for β-D-xylosidase response R (activity in elicited cells/non-elicited control cells), maximal: 15 minutes; for β-D-xylosidase response: 42 hours; for β-D-xylosidase response R: after 1 hour
Protocol: Vegetable material: Acer pseudoplatanus L Cells in Suspension
Test: 2.10^6 Acer pseudoplatanus L. cells were elicited under circular stirring (80 rpm), in 25 ml of culture medium (without 2,4-D) by 50 nM of 2′-fucosyl lactose (compound A) or 50 nM of methyl α-L-Fuc (1→2) β-D-Gal (1→2) β-D-Xyl trisaccharide (compound B)(synthesized according to Lopez et al., 1994) or for a variable time (0 to 42 hours) in the presence or not in the presence of an effector: cycloheximide (1 μM), okadaic acid (5 nM), staurosporine (500 nM), or boroglycine (500 nM). The elicitation experiment is stopped by putting the cells in ice. The cells recovered after decantation and taken up in approximately 1 ml of elicitation buffer are the subject of a specific protein extraction.
D-glycosylhydrolase extraction. The enzyme extracts are prepared from elicited or non-elicited cells. The cells are homogenized at 0° C. in Tris-HCl buffer (50 mM pH 7.2) containing 1 M of NaCl with a Vibracell™ Bioblock sonicator, maximum power, for 3 times 1 minute. The homogenates are centrifuged at 4° C. (12000 g, 15 minutes) then dialysed and concentrated on Ultrafree™ Millipore ultrafiltration units (cut-off threshold 10 kDa). The retentates, taken up in distilled water, are crude extracts.
β-D-xylosidase activity assay according to the protocol of Lee and Zeikus (1993) after incubation of the enzyme extracts (2 to 4 μg of proteins) in sodium acetate buffer (0.1 M, pH 5), at 40° C. for a variable time (90 to 210 minutes), in the presence of p-nitrophenyl β-D-xylopyranoside (p-NPX) substrate (7.3 μM). After addition of Na2CO3 (0.1 M), the products released are assayed by spectrophotometry at 410 nm.
Evaluation of the experimental data. At least 2 kinetics were carried out per sample, and per set of experiments. The reaction rate (ΔA410 minutes^−1 for example) is obtained by linear regression from 4 kinetic curves. The results are expressed by the ratio R (enzymatic activity in elicited cells/enzymatic activity in non-elicited control cells).

papain (EC 3.4.22.2) = experiment: Induction of a thiol-protease (papain) inhibitor in elicited cells; assay type: cell-based, Acer pseudoplatanus L.; conditions: 50 nM elicitor; for Papain inhibitor potential, early reaction: after 30 minutes; for Papain inhibitor potential, late reaction: after 42 hours
Protocol: Vegetable Material: Acer pseudoplatanus L. Cells in Suspension
Test: 2.10^6 cells of Acer pseudoplatanus L. were elicited by 50 nM of 2′-fucosyl lactose (compound A) or by 50 nM of methyl α-L-Fuc (1→2)β-D-Gal (1→2)β-D-Xyl trisaccharide (compound B) (synthesized according to Lopez et al., 1994) for 30 minutes or for 42 hours. Inhibitors of protease (IP) were prepared according to the protocol of Walker-Simmons (1977) starting from elicited or non-elicited cells. It was verified that the viability of the cells was maintained at more than 85% for the whole duration of the experiment.
Papain activity assay: the reaction medium contains an aliquot of IP extract (equivalent to 1 or 2 μg of proteins) in sodium phosphate citrate buffer (0.1M) pH 6 enriched with cysteine-HCl (5 mM), papain (EC 3.4.22.2) (0.48 units), p-nitroanilide N-α-benzoyl-D-L-arginine (BAPNA) (0.27 mM). The activity assay is based on the absorbance measurement at 410 nm. The reaction rate is given by ΔA410 min^−1.
Evaluation of the experimental data: for a given sample, the activity of an IP inhibitor isolated from this sample is estimated by developing the protease kinetics (recording at 410 nm for IO minutes in the presence or not in the presence of a variable quantity of inhibitor). The experimental conditions adopted (incubation time, substrate, enzyme and IP extract concentrations) are those which lead to linear and reproducible kinetics. The initial reaction rate is the slope α(A410 minutes^−1) of a curve A410=f(t). For a given sample, at least three curves are plotted and the initial rate is deduced by linear regression. The protease activity modulation capacity is expressed as a % of the control activity (protease activity without IP inhibitor).
The elicitation response is evaluated according to the papain inhibition measured in the presence of a protease inhibitor prepared from cells elicited by 2′ fucosyl lactose (2A) or by methyl α-L-Fuc (12) β-D-Gal (12) β-D-Xyl trisaccharide (2B); the results are expressed as a % of the control activity (papain activity in the non-elicited cells measured without inhibitor).

[2] = test system: Rubus fruticosus protoplasts; experiment: Elicitation of an oxidative burst: generation of superoxide anion (Cyt c assay); assay type: cell-based; conditions: 25° C.; for Cytochrome c reduction response (100% = non-elicited controls): at 10 nM; for Optimal response, cytochrome c reduction (100% = non-elicited controls): at the optimal dose
Protocol: Preparation of Rubus fruticosus protoplasts according to Vargas-Rechia (1998). The protoplast yield is of the order of 70 to 85% of the initial number of cells used; the viability of the protoplasts, of the order of 90 to 95%, was checked using Evans blue indicator.
The Cyt c assay was carried out according to Nakanishi et al. (1991) in the following manner. Incubation at 25° C. of 4.10^6 protoplasts in the presence of Cyt c (100 μM), and of the elicitor (0 to 100 μM): 2′-fucosyl lactose (compound A), XXFGol (compound B).
Evaluation of the experimental data: The reaction rate is given by (AF340 min^−1). At least three kinetic curves are plotted per experimental condition. One point on the graph corresponds to the slope of the regression curve deduced from at least 6 kinetic curves.
The elicitation response is evaluated according to the cytochrome c reduction measured by the absorbance variation at […]; the 100% reference value corresponds to the reduction count of the controls (non-elicited protoplast suspensions).

Row | Compound | β-D-xylosidase response R (activity in elicited cells/non-elicited control cells), maximal [1] | β-D-xylosidase response [1] | β-D-xylosidase response R [1] | Papain inhibitor potential, early reaction (papain (EC 3.4.22.2)) | Papain inhibitor potential, late reaction (papain (EC 3.4.22.2)) | Elicitor dose of optimal response, cytochrome c reduction (superoxide anion) [2] [nM] | Cytochrome c reduction response (100% = non-elicited controls) [2] [%] | Optimal response, cytochrome c reduction (100% = non-elicited controls) [2] [%]
1 | C[C@@H]1O[C@@H](O[C@H]2[C@H](O[C@H]3[C@H](O)[C@@H](O)[C@H](O)O[C@@H]3CO)O[C@H](CO)[C@H](O)[C@@H]2O)[C@@H](O)[C@H](O)[C@@H]1O [compound A, α-L-Fuc(1→2)β-D-Gal(1→4)β-D-Glc] | 9 | no significant response | 1 | same papain inhibitor potential | lower intensity | 50 | 187 | 200
2 | CO[C@@H]1OC[C@@H](O)[C@H](O)[C@H]1O[C@@H]1O[C@H](CO)[C@H](O)[C@H](O)[C@H]1O[C@@H]1O[C@@H](C)[C@@H](O)[C@@H](O)[C@@H]1O [compound B, methyl α-L-Fuc (1→2)β-D-Gal (1→2)β-D-Xyl] | 5 | no significant response | 1 | same papain inhibitor potential | lower intensity | 15 | 160 | 159
